pIC50: −log10 of the molar value.
Target: EGFR (human) (UniProt P00533)
Sequence (P00533 whole entry, looked up): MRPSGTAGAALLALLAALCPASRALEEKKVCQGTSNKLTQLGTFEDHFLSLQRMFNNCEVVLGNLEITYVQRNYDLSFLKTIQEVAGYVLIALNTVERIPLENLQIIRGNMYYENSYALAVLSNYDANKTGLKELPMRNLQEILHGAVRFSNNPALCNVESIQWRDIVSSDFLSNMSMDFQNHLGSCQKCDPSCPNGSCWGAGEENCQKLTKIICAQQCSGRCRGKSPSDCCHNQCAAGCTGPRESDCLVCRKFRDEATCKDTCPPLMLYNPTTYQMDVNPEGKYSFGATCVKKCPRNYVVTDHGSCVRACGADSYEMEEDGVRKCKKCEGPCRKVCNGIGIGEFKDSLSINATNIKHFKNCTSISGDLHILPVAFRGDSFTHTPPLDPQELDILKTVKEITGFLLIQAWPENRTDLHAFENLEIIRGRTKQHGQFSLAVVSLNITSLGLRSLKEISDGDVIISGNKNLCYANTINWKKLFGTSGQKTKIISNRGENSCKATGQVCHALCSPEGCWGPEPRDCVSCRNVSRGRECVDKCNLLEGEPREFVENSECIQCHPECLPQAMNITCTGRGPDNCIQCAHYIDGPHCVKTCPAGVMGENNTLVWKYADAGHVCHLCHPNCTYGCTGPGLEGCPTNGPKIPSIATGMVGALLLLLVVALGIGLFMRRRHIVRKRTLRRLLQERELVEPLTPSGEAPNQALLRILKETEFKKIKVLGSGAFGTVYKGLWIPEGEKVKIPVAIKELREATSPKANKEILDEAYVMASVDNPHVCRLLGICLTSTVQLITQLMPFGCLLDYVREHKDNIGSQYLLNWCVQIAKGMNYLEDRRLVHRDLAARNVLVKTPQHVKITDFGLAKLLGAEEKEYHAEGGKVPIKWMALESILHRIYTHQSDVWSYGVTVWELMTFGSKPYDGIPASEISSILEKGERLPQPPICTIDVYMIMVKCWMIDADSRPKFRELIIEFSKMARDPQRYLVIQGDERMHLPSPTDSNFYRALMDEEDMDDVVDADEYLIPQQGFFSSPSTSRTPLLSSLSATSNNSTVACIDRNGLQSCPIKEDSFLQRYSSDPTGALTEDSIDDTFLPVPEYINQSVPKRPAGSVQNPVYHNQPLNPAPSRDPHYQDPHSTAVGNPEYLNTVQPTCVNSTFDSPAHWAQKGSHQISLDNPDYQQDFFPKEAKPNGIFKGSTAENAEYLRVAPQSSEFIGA

## O=C1CCc2cn(-c3ccc4ncnc(Nc5ccc(OCc6cccc(F)c6)c(Cl)c5)c4c3)cc21
  pIC50: 8.70

## Fc1cccc(COc2ccc(Nc3ncnc4ccc(-c5ccn(CCN6CCNCC6)c5)cc34)cc2Cl)c1
  pIC50: 8.70

## O[C@@H](CNCc1cn(-c2ccc3ncnc(Nc4ccc(OCc5cccc(F)c5)c(Cl)c4)c3c2)cc1C(F)(F)F)CN1CCOCC1
  pIC50: 7.04

## COCCNCC(O)Cn1ccc(-c2ccc3ncnc(Nc4ccc(OCc5cccc(F)c5)c(Cl)c4)c3c2)c1 (stereo not given)
  pIC50: 7.96

## CS(=O)(=O)CCNCc1cn(-c2ccc3ncnc(Nc4ccc(OCc5cccc(F)c5)c(Cl)c4)c3c2)cc1CCO
  pIC50: 7.96

## Fc1cccc(COc2ccc(Nc3ncnc4ccc(-c5ccn(CCN6CCOCC6)c5)cc34)cc2Cl)c1
  pIC50: 7.40

## Fc1ccc(Nc2ncnc3ccc(-c4cc[nH]c4)cc23)cc1Cl
  pIC50: 7.33

## OC(CN1CCNCC1)Cn1ccc(-c2ccc3ncnc(Nc4ccc(OCc5cccc(F)c5)c(Cl)c4)c3c2)c1 (stereo not given)
  pIC50: 7.52

## O=C(c1cn(-c2ccc3ncnc(Nc4ccc(OCc5cccc(F)c5)c(Cl)c4)c3c2)cc1CCN1CCOCC1)N1CCOCC1
  pIC50: 7.60

## CCOC(=O)c1cn(-c2ccc3ncnc(Nc4ccc(OCc5cccc(F)c5)c(Cl)c4)c3c2)cc1C(F)(F)F
  pIC50: 7.51

## OC(CNCCN1CCCCC1)Cn1ccc(-c2ccc3ncnc(Nc4ccc(OCc5cccc(F)c5)c(Cl)c4)c3c2)c1 (stereo not given)
  pIC50: 7.04

## CCN(CC)CCc1cn(-c2ccc3ncnc(Nc4ccc(OCc5cccc(F)c5)c(Cl)c4)c3c2)cc1C(=O)N1CCOCC1
  pIC50: 7.82

## CN(C)Cc1cn(-c2ccc3ncnc(Nc4ccc(OCc5cccc(F)c5)c(Cl)c4)c3c2)cc1CN(C)C
  pIC50: 7.25

## CS(=O)(=O)CCNC(=O)c1cc(-c2ccc3ncnc(Nc4ccc(OCc5cccc(F)c5)c(Cl)c4)c3c2)c[nH]1
  pIC50: 7.62

## COCCc1cn(-c2ccc3ncnc(Nc4ccc(OCc5cccc(F)c5)c(Cl)c4)c3c2)cc1C(=O)N1CCOCC1
  pIC50: 7.14

## CS(=O)(=O)CCNCc1cn(-c2ccc3ncnc(Nc4ccc5c(cnn5Cc5cccc(F)c5)c4)c3c2)cc1CCO
  pIC50: 7.60

## Fc1cccc(COc2ccc(Nc3ncnc4ccc(-n5cc(CN6CCCCC6)c(CN6CCCCC6)c5)cc34)cc2Cl)c1
  pIC50: 6.54

## O=S1(=O)CCC(O)(CNCc2cn(-c3ccc4ncnc(Nc5ccc(OCc6cccc(F)c6)c(Cl)c5)c4c3)cc2C(F)(F)F)CC1
  pIC50: 7.80

## CN(C)CCc1cn(-c2ccc3ncnc(Nc4ccc(OCc5cccc(F)c5)c(Cl)c4)c3c2)cc1C(=O)N1CCOCC1
  pIC50: 7.24

## C=C(C)C(=O)Nc1cn(-c2ccc3ncnc(Nc4ccc(OCc5cccc(F)c5)c(Cl)c4)c3c2)cc1C(F)(F)F
  pIC50: 8.30

## CN(C)CC=CC(=O)Nc1cn(-c2ccc3ncnc(Nc4ccc(OCc5cccc(F)c5)c(Cl)c4)c3c2)cc1C(F)(F)F
  pIC50: 6.56

## CCN(CC)Cc1cn(-c2ccc3ncnc(Nc4ccc(OCc5cccc(F)c5)c(Cl)c4)c3c2)cc1CN(CC)CC
  pIC50: 6.90

## O=C(c1cn(-c2ccc3ncnc(Nc4ccc(OCc5ccccn5)c(Cl)c4)c3c2)cc1CCO)N1CCCC1
  pIC50: 7.52

## CN1CCN(C(=O)c2cn(-c3ccc4ncnc(Nc5ccc6c(cnn6Cc6ccc(F)cc6)c5)c4c3)cc2CCO)CC1
  pIC50: 7.21

## O=C(c1cn(-c2ccc3ncnc(Nc4ccc5c(cnn5Cc5ccc(F)cc5)c4)c3c2)cc1CCO)N1CCOCC1
  pIC50: 7.30

## Fc1cccc(COc2ccc(Nc3ncnc4ccc(-c5ccn(CCOC6CCCCO6)c5)cc34)cc2Cl)c1 (stereo not given)
  pIC50: 6.88

## O=S1(=O)CCC(CNCc2cn(-c3ccc4ncnc(Nc5ccc(F)c(Cl)c5)c4c3)cc2CCO)CC1
  pIC50: 6.90

## O=S1(=O)CCC(O)(CNCc2cn(-c3ccc4ncnc(Nc5ccc(OCc6cccc(F)c6)c(Cl)c5)c4c3)cc2CCO)CC1
  pIC50: 7.72

## O=S1(=O)CCC(CNCC(O)Cn2ccc(-c3ccc4ncnc(Nc5ccc(OCc6cccc(F)c6)c(Cl)c5)c4c3)c2)CC1 (stereo not given)
  pIC50: 7.38

## CS(=O)(=O)CCNCc1cn(-c2ccc3ncnc(Nc4ccc(OCc5ccccn5)c(Cl)c4)c3c2)cc1CCO
  pIC50: 7.80

## CC(C)(C)OC(=O)N1CCC(NCc2cc(-c3ccc4ncnc(Nc5ccc(OCc6cccc(F)c6)c(Cl)c5)c4c3)c[nH]2)CC1
  pIC50: 6.33

## CCN(CC)CCON=C1CCc2cn(-c3ccc4ncnc(Nc5ccc(OCc6cccc(F)c6)c(Cl)c5)c4c3)cc21
  pIC50: 7.14

## OCCc1cn(-c2ccc3ncnc(Nc4ccc(OCc5ccccn5)c(Cl)c4)c3c2)cc1CN1CCOCC1
  pIC50: 7.66

## O=C(Cn1ccc(-c2ccc3ncnc(Nc4ccc(OCc5cccc(F)c5)c(Cl)c4)c3c2)c1)NC1CCNCC1
  pIC50: 7.47

## CCN(CC)Cc1cn(-c2ccc3ncnc(Nc4ccc(OCc5cccc(F)c5)c(Cl)c4)c3c2)cc1CCO
  pIC50: 7.43

## O=C(NCCN1CCCCC1)c1cn(-c2ccc3ncnc(Nc4ccc5c(cnn5Cc5ccc(F)cc5)c4)c3c2)cc1CCO
  pIC50: 7.64

## Fc1cccc(COc2ccc(Nc3ncnc4ccc(-n5cc(CNCCN6CCOCC6)c(C(F)(F)F)c5)cc34)cc2Cl)c1
  pIC50: 7.49

## O=S1(=O)CCC(CNCc2cn(-c3ccc4ncnc(Nc5ccc(OCc6cccc(F)c6)c(Cl)c5)c4c3)cc2CCO)CC1
  pIC50: 7.62

## OC(CN1CCOCC1)Cn1ccc(-c2ccc3ncnc(Nc4ccc(OCc5cccc(F)c5)c(Cl)c4)c3c2)c1 (stereo not given)
  pIC50: 7.92

## Fc1cccc(COc2ccc(Nc3ncnc4ccc(-c5c[nH]c(CNCCCN6CCOCC6)c5)cc34)cc2Cl)c1
  pIC50: 6.71
